One data set deals with Amaranthus. The experiment in a line: Pre-emergence test/greenhouse. The format is in vivo. As to conditions: after three weeks.
A further data set deals with Sorghum. The experiment in a line: Pre-emergence test/greenhouse. The format is in vivo. As to conditions: after three weeks.
A further data set concerns Stellaria. The experiment in a line: Pre-emergence test/greenhouse. The format is in vivo. As to conditions: after three weeks.
The next data set relates to Lolium. The experiment in a line: Pre-emergence test/greenhouse. It counts as in vivo. As to conditions: after three weeks.
Data set [1] concerns Alopecurus. The experiment in a line: Pre-emergence test/greenhouse. It counts as in vivo. As to conditions: after three weeks.
The next data set deals with Chenopodium. The experiment in a line: Pre-emergence test/greenhouse. The format is in vivo. As to conditions: after three weeks.
The test system of data set [2] is weeds. The experiment in a line: Pre-emergence test (overall statement). The format is in vivo. The conditions noted are these: application rates between 30 g and 125 g of a.i. per hectare.
A further data set relates to Echinochloa. The experiment in a line: Post-emergence test/greenhouse. The format is in vivo. The conditions noted are these: rated after three weeks vs untreated control.
Data set [3] has as its system Alopecurus. The experiment in a line: Post-emergence test/greenhouse. As to conditions: rated after three weeks vs untreated control. It counts as in vivo.
For the next data set, the system named is Matricaria. The experiment in a line: Post-emergence test/greenhouse. It counts as in vivo. As to conditions: rated after three weeks vs untreated control.
The subject of data set [4] is weeds. The experiment in a line: Post-emergence test/greenhouse. It counts as in vivo.
For another data set, the system named is Abutilon. The experiment in a line: Post-emergence test/greenhouse. It counts as in vivo. The conditions noted are these: rated after three weeks vs untreated control.
The mark [5] stands for this setting: application rate 30 g of ai./ha.
[6] abbreviates: application rate 60 g of ai./ha.

SMILES strings stand for the structures.

The results in this text go back to patent US6838414B2, “Substituted aryl sulphonyl(thio)ureas used as herbicides” (Bayer Aktiengesellschaft, priority 1996, dated 2005).

Regarding `COc1cccc(C(F)(F)F)c1S(=O)(=O)NC(=O)Nc1nc(C)cc(C)n1` [Example 1, N-(4,6-dimethyl-pyrimidin-2-yl)-N′-(2-methoxy-6-trifluoromethyl-phenylsulphonyl)-urea], the melting point (in general, the temperature of the solid-liquid transition) turned out to be 190 °C. Also, in the data set on Amaranthus (60 g of ai./ha), the “Amaranthus, % damage” value is 100%. The “Sorghum, % damage” value in the data set on Sorghum (60 g of ai./ha) is reported as 100%. The “Steltaria, % damage” value with Stellaria (60 g of ai./ha) is given as 100%. Moreover, the “Lolium, % damage” value with Lolium (60 g of ai./ha) came to 100%. Further, the “Alopecurus, % damage” value in the data set with Alopecurus [1] (60 g of ai./ha) is listed as 100%. In the data set on Chenopodium (60 g of ai./ha), the “Chenopodium, % damage” value is listed as 100%. Besides, the activity against weeds result with weeds [2] is given as “very strong activity against weeds”.

`COc1nc(NC(=O)NS(=O)(=O)c2c(C)cccc2OC)nc(OC)n1` [Example 2, N-(4,6-dimethoxy-1,3,5-triazin-2-yl)-N′-(2-methoxy-6-methyl-phenylsulphonyl)-urea] registered a melting point of 163 °C. The “Amaranthus, % damage” value with Amaranthus (30 g of ai./ha) is recorded as 100%. The “Sorghum, % damage” value in the data set on Sorghum (30 g of ai./ha) is on record as 100%. Also, in the data set on Stellaria (30 g of ai./ha), the “Steltaria, % damage” value is 100%. For the same compound, in the data set with Lolium (30 g of ai./ha), the “Lolium, % damage” value amounted to 100%. The “Alopecurus, % damage” value in the data set with Alopecurus [1] (30 g of ai./ha) was determined as 100%. Further, the “Chenopodium, % damage” value in the data set with Chenopodium (30 g of ai./ha) turned out to be 100%. In addition, in the data set on weeds [2], the activity against weeds entry is “very strong activity against weeds”. Moreover, the “degree of damage to the plants, Echinochloa” value (from here on “degree of damage … Echinochloa”) in the data set on Echinochloa (setting [5]) is 90%. In addition, the “degree of damage to the plants, Alopecurus” value (“degree of damage … Alopecurus” for short) in the data set with Alopecurus [3] (setting [5]) came out at 90%. For the same compound, the “degree of damage to the plants, Matricaria” value (“degree of damage … Matricaria” below) in the data set with Matricaria (setting [5]) was 100%. For the same compound, the activity against weeds result with weeds [4] was “very strong activity against weeds”. For the same compound, in the data set with Abutilon (setting [5]), the “degree of damage to the plants, Abutilon” value was 95%.

For the compound `CCOc1cccc(C)c1S(=O)(=O)NC(=O)Nc1nc(OC)cc(OC)n1` [Example 3, N-(4,6-dimethoxy-pyrimidin-2-yl)-N′-(2-ethoxy-6-methyl-phenylsulphonyl)-urea], the melting point came out at 184 °C. For the same compound, the “Amaranthus, % damage” value in the data set on Amaranthus (60 g of ai./ha) is 80%. Further, in the data set on Sorghum (60 g of ai./ha), the “Sorghum, % damage” value came out at 80%. Besides, in the data set on Stellaria (60 g of ai./ha), the “Steltaria, % damage” value was 95%. For the same compound, the “Lolium, % damage” value with Lolium (60 g of ai./ha) is listed as 60%. Besides, the “Alopecurus, % damage” value in the data set with Alopecurus [1] (60 g of ai./ha) is 95%. Moreover, the “Chenopodium, % damage” value with Chenopodium (60 g of ai./ha) turned out to be 95%. In the data set with weeds [2], the activity against weeds result is “very strong activity against weeds”. In the data set on Echinochloa (setting [6]), the “degree of damage … Echinochloa” value came out at 80%. Further, the “degree of damage … Alopecurus” value with Alopecurus [3] (setting [6]) was 90%. In addition, the “degree of damage … Matricaria” value in the data set with Matricaria (setting [6]) is 95%. For the same compound, the activity against weeds result in the data set on weeds [4] is given as “very strong activity against weeds”. Besides, the “degree of damage to the plants, Abutilon” value in the data set on Abutilon (setting [6]) was 100%.

In the case of `COc1nc(C)nc(NC(=O)NS(=O)(=O)c2c(C)cccc2OC(F)F)n1` [Example 66], the “Amaranthus, % damage” value with Amaranthus (60 g of ai./ha) was 95%. Further, in the data set on Sorghum (60 g of ai./ha), the “Sorghum, % damage” value is 95%. Also, the “Steltaria, % damage” value in the data set with Stellaria (60 g of ai./ha) was 95%. The “Lolium, % damage” value with Lolium (60 g of ai./ha) is given as 95%. Besides, the “Alopecurus, % damage” value in the data set on Alopecurus [1] (60 g of ai./ha) is 95%. In addition, the “Chenopodium, % damage” value with Chenopodium (60 g of ai./ha) was determined as 95%. Moreover, the activity against weeds result in the data set on weeds [2] and in the data set on weeds [4] was “very strong activity against weeds” in each case. Moreover, the “degree of damage … Echinochloa” value in the data set on Echinochloa (setting [6]) worked out at 80%. The “degree of damage … Alopecurus” value in the data set on Alopecurus [3] (setting [6]) turned out to be 80%. Moreover, in the data set with Matricaria (setting [6]), the “degree of damage … Matricaria” value is on record as 100%. In the data set on Abutilon (setting [6]), the “degree of damage to the plants, Abutilon” value is recorded as 100%.
